Source: PMC4254541 (Bioorganic & medicinal chemistry letters, 2014)
pEC50: −log10 of the molar value. Where two headings read alike, the source gives them in different places.

How the values were obtained:
Format in all cases: binding
[1] = biological target: synthetic Aβ(1–40) fibrils (Homo sapiens, UniProt P05067); assay: Displacement of 5 nM [3H]-1a
[2] = biological target: synthetic Aβ(1–42) fibrils (Homo sapiens, UniProt P05067); assay: Displacement of 5 nM [3H]-1a
[3] = test system: Aβ40 and Aβ42 fibrils; assay: Displacement of tritiated 1a from Aβ fibrils; details: benzothiazole ligands versus tritiated 1a on Aβ fibrils
[4] = read-out: Aβ(1–40) EC50, displacement of 5 nM [3H]-1a from synthetic Aβ(1–40) fibrils
[5] = read-out: Aβ(1–42) EC50, displacement of 5 nM [3H]-1a from synthetic Aβ(1–42) fibrils

Sequence of synthetic Aβ(1–42) fibrils (P05067 672-713): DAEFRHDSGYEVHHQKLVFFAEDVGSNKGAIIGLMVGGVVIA
Sequence of synthetic Aβ(1–40) fibrils (P05067 672-711): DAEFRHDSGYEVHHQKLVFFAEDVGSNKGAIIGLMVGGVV

Compound | pEC50 [1] | pEC50 [2] | displacing 1a [3] | pEC50 [1, 4] | pEC50 [2, 5]
COc1cc(/C=C/c2ccc(N)cc2)ccc1/C=C/c1ccc(N)cc1 [BMB, (E,E)-1-methoxy-2,5-bis(4’-aminostyryl)benzene] | < 5.00 | 5.52 |  |  | 
CNc1ccc(-c2nc3ccccc3s2)cc1 [BTA-1, 2-(4´-methylaminophenyl)benzothiazole] |  |  | ineffective |  | 
O=C(O)c1cc(/C=C/c2ccc(/C=C/c3ccc(O)c(C(=O)O)c3)c(Br)c2)ccc1O [BSB] | 6.64 | 6.92 |  |  | 
CNc1ccc(-c2nc3ccc(O)cc3s2)cc1 [PIB, Pittsburgh Compound B] |  |  | ineffective |  | 
primulin |  |  |  | < 5.00 | < 5.00
COc1ccc2cc([C@H](C)C(=O)O)ccc2c1 [naproxen] | < 5.00 | < 5.00 |  |  | 
Oc1ccc(/C=C/c2ccc(/C=C/c3ccc(O)cc3)c(Br)c2)cc1 [K114, (E,E)-1-bromo-2,5-bis(4’-hydroxystyryl)benzene] | < 5.00 | 5.52 |  |  | 
Thioflavin S [ThS] |  |  |  | < 5.00 | < 5.00
Cc1ccc2c(c1)sc(-c1ccc(N(C)C)cc1)[n+]2C.[Cl-] [ThT, Thioflavine T] |  |  | ineffective |  | 
Nc1c(/N=N/c2ccc(-c3ccc(/N=N/c4cc(S(=O)(=O)O)c5ccccc5c4N)cc3)cc2)cc(S(=O)(=O)O)c2ccccc12 [Congo Red] | 5.64 | 6.15 |  |  | 
O=C(O)c1cc(/N=N/c2ccc(-c3ccc(/N=N/c4ccc(O)c(C(=O)O)c4)cc3)cc2)ccc1O [Chrysamine G] | 5.05 | 6.05 |  |  | 
CC(C)Cc1ccc(C(C)C(=O)O)cc1 (stereo not drawn) [ibuprofen] | < 5.00 | < 5.00 |  |  | 
